This is an account of results in ChEMBL document CHEMBL1153236, “Non-aromatic A-ring replacement in the triaryl bis-sulfone CB2 receptor inhibitors” (Bioorg Med Chem Lett, 2010).

For this series, the species on record is Rattus norvegicus. Conditions: in vivo, 6 h.
As for `O=S(=O)(c1ccccn1)c1ccc(Cl)cc1S(=O)(=O)N1CCC2(CC1)CC2NS(=O)(=O)C(F)(F)F` (stereo not drawn), the AUC stood at 6.1 µM.

On to `O=S(=O)(c1ccccn1)c1ccc(OC(F)(F)F)cc1S(=O)(=O)N1CCC2(CC1)CC2NS(=O)(=O)C(F)(F)F` (stereo not drawn), for which the AUC was 7.3 µM.

On to `O=S(=O)(c1ccccc1F)c1cc(Cl)ccc1S(=O)(=O)N1CCC(CNS(=O)(=O)C(F)(F)F)CC1`, for which the AUC was found to be 1.9 µM.
